This passage reports Ki results from US20060100431A1, “Biologically active compounds” (Amura Therapeutics Limited, priority 2002, published 2006).

Holding throughout (format): biochemical
The target in test [1] is T1, human cathepsin L (Homo sapiens, UniProt P07711).
T1 construct: purchased CN Biosciences
In words: Cathepsin L peptidase activity assay (Ki). As to conditions: read-out: Ki, inhibitors of cathepsin L. As for the experimental part:
Unless otherwise stated, all general chemicals and biochemicals were purchased from either the Sigma Chemical Company, Poole, Dorset, U.K or from Fisher Scientific UK, Loughborough, Leicestershire, U.K. Absorbance assays were carried out in flat-bottomed 96-well plates (Spectra; Greiner Bio-One Ltd., Stonehouse, Gloucestershire, U.K.) using a SpectraMax PLUS384 plate reader (Molecular Devices, Crawley, U.K.). Fluorescence high throughput assays were carried out in either 384-well microtitre plates (Corning Costar 3705 plates, Fisher Scientific) or 96-well ‘U’ bottomed Microfluor W1 microtitre plates (Thermo Labsystems, Ashford, Middlesex, U.K.). Fluorescence assays were monitored using a SpectraMax Gemini fluorescence plate reader (Molecular Devices). For substrates employing either a 7-amino-4-methylcoumarin (AMC) or a 7-amino-4-trifluoromethylcoumarin (AFC) fluorophore, assays were monitored at an excitation wavelength of 365 nm and an emission wavelength of 450 nm and the fluorescence plate reader calibrated with AMC. For substrates employing a 3-amino-benzoyl (Abz) fluorophore, assays were monitored at an excitation wavelength of 310 nm and an emission wavelength of 445 nm; the fluorescence plate reader calibrated with 3-amino-benzamide (Fluka). Unless otherwise indicated, all the peptidase substrates were purchased from Bachem UK, St Helens, Merseyside, UK. Substrates utilizing fluorescence resonance energy transfer methodology (i.e. FRET-based substrates) were synthesized at Incenta Limited using published methods (Atherton & Sheppard, Solid Phase Peptide Synthesis, IRL Press, Oxford, U.K, 1989) and employed Abz (2-aminobenzoyl) as the fluorescence donor and 3-nitro-tyrosine [Tyr(NO2)] as the fluorescence quencher (Meldal, M. and Breddam, K., Anal. Biochem, 195, 141-147, 1991). Hydroxyethylpiperazine ethanesulfonate (HEPES), tris-hydroxylmethyl aminomethane (tris) base, bis-tris-propane and all the biological detergents (e.g. CHAPS, zwittergents, etc.) were purchased from CN Biosciences UK, Beeston, Nottinghamshire, U.K. Glycerol was purchased from Amersham Pharmacia Biotech, Little Chalfont, Buckinghamshire, U.K. Stock solutions of substrate or inhibitor were made up to 10 mM in 100% dimethylsulfoxide (DMSO) (Rathburns, Glasgow, U.K.) and diluted as appropriately required. In all cases the DMSO concentration in the assays was maintained at less than 1% (vol./vol.).
Assay protocols were based on literature precedent (Table 4; Barrett, A. J., Rawlings, N. D. and Woessner, J. F., 1998, Handbook of Proteolytic Enzymes, Academic Press, London and references therein) and modified as required to suit local assay protocols. Enzyme was added as required to initiate the reaction and the activity, as judged by the change in fluorescence upon conversion of substrate to product, was monitored over time. All assays were carried out at 25±1° C.
Bovine cathepsin S, human cathepsin L, human cathepsin H and human cathepsin B were obtained from CN Biosciences. Recombinant human cathepsin S, human cathepsin K and human cathepsin X were obtained from Dr. Boris Turk (Josef Stefan Institute, Ljubljana, Slovenia). Unless otherwise stated, all peptidase activity assays were carried out in 10 mM bis-tris-propane (BTP), pH 6.5 containing 1 mM EDTA, 5 mM 2-mercaptoethanol and 1 mM CaCl2. Human cathepsin H activity assays were carried out in 10 mM BTP pH 6.5, 142 mM NaCl2, 1 mM CaCl2, 1 mM EDTA, 1 mM DTT, 0.035 mM Zwittergent 3-16. Human cathepsin K assays were carried out in 100 mM sodium acetate; pH 5.5 containing 20 mM L-cysteine and 1 mM EDTA (Bossard, M. J., et. al., J. Biol. Chem., 21, 12517-12524, 1996). Human cathepsin X assays were carried out in 100 mM sodium acetate; pH 5.5 containing 20 mM L-cysteine; 0.05% (w/v) Brij 35 and 1 mM EDTA (Santamaria, I., et. al., J. Biol. Chem., 273, 16816-16823, 1998; Klemencic, J, et al., Eur. J. Biochem., 267, 5404-5412, 2000). […]

In test [2] the target is T2, CPB2.8ΔCTE (Leishmania mexicana, UniProt P36400).
T2 construct: Wild-type recombinant CPB without the C-terminal extention (i.e. CPB2.8ΔCTE); Dr. Jeremy Mottram (Wellcome Centre for Molecular Parasitology, University of Glasgow)
T2 sequence (P36400 126-343, stated change not applied): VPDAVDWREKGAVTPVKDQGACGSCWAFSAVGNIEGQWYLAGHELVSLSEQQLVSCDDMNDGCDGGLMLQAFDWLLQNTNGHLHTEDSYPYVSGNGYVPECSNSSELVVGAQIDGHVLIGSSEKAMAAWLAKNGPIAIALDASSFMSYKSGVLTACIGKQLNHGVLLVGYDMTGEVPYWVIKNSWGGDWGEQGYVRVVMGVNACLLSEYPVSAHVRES
In words: Leishmania mexicana cysteine protease B (CPB) peptidase activity assay (Ki). As to conditions: Ki, inhibitors of Leismania mexicana CPB protease. In a few lines:
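Apparent Ki was derived by regression of activity against inhibitor concentration, assuming pure-competitive reversible binding. Reaction: 0.25 nM CPB lacking the C-terminal extension, pH 5.5 acetate buffer (1 mM EDTA, 200 mM NaCl, 10 mM DTT), 25 °C, followed by continuous substrate fluorescence.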

For test [3], the target named is Wild-type cruzipain (Trypanosoma cruzi, UniProt P25779). As to the kind of experiment: Trypanosoma cruzi cruzipain peptidase activity assay (Ki). To be noted: read-out: Ki, inhibitors of cruzain and cruzipains. In a few lines: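 Native cruzipain from T. cruzi Dm28 epimastigotes, 2.5 nM, in 100 mM sodium phosphate pH 6.75 with 1 mM EDTA and 10 mM L-cysteine, 25 °C, DMSO <1%. Rates taken from continuous fluorogenic substrate read; Ki by regression assuming reversible pure-competitive inhibition.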
Chain of Wild-type cruzipain (P25779 whole entry): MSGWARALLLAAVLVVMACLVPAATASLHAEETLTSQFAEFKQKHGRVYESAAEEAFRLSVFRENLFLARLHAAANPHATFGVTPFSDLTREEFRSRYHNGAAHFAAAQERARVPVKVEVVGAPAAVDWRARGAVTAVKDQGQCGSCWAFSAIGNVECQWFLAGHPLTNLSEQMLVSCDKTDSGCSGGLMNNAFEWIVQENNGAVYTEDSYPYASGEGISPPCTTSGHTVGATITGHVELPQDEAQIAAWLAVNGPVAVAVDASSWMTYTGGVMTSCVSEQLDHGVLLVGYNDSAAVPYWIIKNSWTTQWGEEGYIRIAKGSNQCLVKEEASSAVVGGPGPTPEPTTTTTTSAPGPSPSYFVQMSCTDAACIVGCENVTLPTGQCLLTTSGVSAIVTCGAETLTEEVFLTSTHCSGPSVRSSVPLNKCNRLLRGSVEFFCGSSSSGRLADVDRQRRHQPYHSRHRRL

T1 sequence (P07711 114-333): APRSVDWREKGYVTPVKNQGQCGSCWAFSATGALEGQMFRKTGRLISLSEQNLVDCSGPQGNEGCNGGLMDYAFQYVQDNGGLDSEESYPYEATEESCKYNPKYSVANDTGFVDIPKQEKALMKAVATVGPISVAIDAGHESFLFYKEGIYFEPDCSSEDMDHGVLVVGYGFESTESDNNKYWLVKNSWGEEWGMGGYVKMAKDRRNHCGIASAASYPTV

As to `CC(=O)N[C@@H](CC(C)C)C(=O)N1CC(=O)[C@@H]2[C@H]1CCN2C(=O)[C@H](CC1CCCCC1)NC(=O)c1ccco1` [Example 295, (3aR,6aS)-Furan-2-carboxylic acid {(1S)-2-[4-((2S)-2-acetylamino-4-methyl-pentanoyl)-6-oxo-hexahydro-pyrrolo[3,2-b]pyrrole-1-yl]-1-cyclohexylmethyl-2-oxo-ethyl}-amide], the Ki in test [1], in test [2] and in test [3] was less than 5 µM in each case.
For the compound `NCc1cccc(C(=O)N[C@@H](CSCc2ccccc2)C(=O)N2CC[C@@H]3[C@H]2C(=O)CN3C(=O)c2ccccc2)c1` [Example 278, (3aR,6aS)-3-Aminomethyl-N-[(1R)-2-(4-benzoyl-6-oxo-hexahydro-pyrrolo[3,2-b]pyrrole-1-yl)-1-benzylsulfanylmethyl-2-oxo-ethyl]-benzamide], the Ki in test [1] and in test [2] was less than 5 µM each time.
On to `CC(C)C[C@H](NC(=O)c1cccc(CN)c1)C(=O)N1CC[C@@H]2[C@H]1C(=O)CN2C(=O)Cc1ccccc1F` [Example 178, (3aR,6aS)-3-Aminomethyl-N-((1S)-1-{4-[2-(2-fluoro-phenyl)-acetyl]-6-oxo-hexahydro-pyrrolo[3,2-b]pyrrole-1-carbonyl}-3-methyl-butyl)-benzamide], for which the Ki in test [1] and in test [2] was less than 5 µM throughout.
With `CC(C)C[C@H](NC(=O)c1cccc(CN)c1)C(=O)N1CC[C@@H]2[C@H]1C(=O)CN2C(=O)Cc1ccc(F)cc1` [Example 180, (3aR,6aS)-3-Aminomethyl-N-((1S)-1-{4-[2-(4-fluoro-phenyl)-acetyl]-6-oxo-hexahydro-pyrrolo[3,2-b]pyrrole-1-carbonyl}-3-methyl-butyl)-benzamide], the Ki in test [1], in test [2] and in test [3] was less than 5 µM each time.
As for `CC(C)C[C@H](NC(=O)c1cccc(CN)c1)C(=O)N1CC[C@@H]2[C@H]1C(=O)CN2C(=O)[C@H](N)c1ccccc1` [Example 181, (3aR,6aS)-3-Aminomethyl-N-{(1S)-1-[4-((2R)-2-amino-2-phenyl-acetyl)-6-oxo-hexahydro-pyrrolo[3,2-b]pyrrole-1-carbonyl]-3-methyl-butyl}-benzamide], the Ki in test [1] and in test [2] was less than 5 µM each time.
Take `CC[C@H](NC(C)=O)C(=O)N1CC(=O)[C@@H]2[C@H]1CCN2C(=O)[C@H](CC(C)C)NC(=O)c1ccc(N(C)C)cc1` [Example 204, (3aR,6aS)-N-{(1S)-1-[4-((2S)-2-Acetylamino-butyryl)-6-oxo-hexahydro-pyrrolo[3,2-b]pyrrole-1-carbonyl]-3-methyl-butyl}-4-dimethylamino-benzamide]: the Ki in test [1], in test [2] and in test [3] was less than 5 µM in each case.
Regarding `Cc1cc(C)cc(C(=O)N2CC(=O)[C@@H]3[C@H]2CCN3C(=O)[C@H](CC(C)C)NC(=O)c2ccc(N(C)C)cc2)c1` [Example 111, (3aR,6aS)-4-Dimethylamino-N-{(1S)-1-[4-(3,5-dimethyl-benzoyl)-6-oxo-hexahydro-pyrrolo[3,2-b]pyrrole-1-carbonyl]-3-methyl-butyl}-benzamide], the Ki in test [1], in test [2] and in test [3] was less than 5 µM in each case.
As for `CC(C)C[C@H](NC(=O)c1ccc(N(C)C)cc1)C(=O)N1CC[C@@H]2[C@H]1C(=O)CN2C(=O)c1cccc(C(F)(F)F)c1` [Example 68, (3aR,6aS)-4-Dimethylamino-N-{(1S)-3-methyl-1-[6-oxo-4-(3-trifluoromethyl-benzoyl)-hexahydro-pyrrolo[3,2-b]pyrrole-1-carbonyl]-butyl}-benzamide], the Ki in test [1], in test [2] and in test [3] was less than 5 µM each time.
Regarding `CC(C)C[C@H](NC(=O)c1cccc(CN)c1)C(=O)N1CC[C@@H]2[C@H]1C(=O)CN2C(=O)[C@@H](N)CC(C)C` [Example 246, (3aR,6aS)-3-Aminomethyl-N-{(1S)-1-[4-((2S)-2-amino-4-methyl-pentanoyl)-6-oxo-hexahydro-pyrrolo[3,2-b]pyrrole-1-carbonyl)-3-methyl-butyl}-benzamide], the Ki in test [1], in test [2] and in test [3] was less than 5 µM each time.
On to `CC(C)C[C@H](NC(=O)c1ccc([N+](C)(C)[O-])cc1)C(=O)N1CC[C@@H]2[C@H]1C(=O)CN2C(=O)c1ccccc1` [Example 117, (3aR,6aS)-N-[(1S)-1-(4-Benzoyl-6-oxo-hexahydro-pyrrolo[3,2-b]pyrrole-1-carbonyl)-3-methyl-butyl]-4-(N-oxy-dimethylamino)-benzamide], for which the Ki in test [1], in test [2] and in test [3] was less than 5 µM throughout.
As for `CC(=O)N1CCC[C@H]1C(=O)N1CC(=O)[C@@H]2[C@H]1CCN2C(=O)[C@H](CC(C)C)NC(=O)c1ccc(N(C)C)cc1` [Example 216, (3aR,6aS)-N-{(1S)-1-[4-((2S)-1-Acetyl-pyrrolidine-2-carbonyl)-6-oxo-hexahydro-pyrrolo[3,2-b]pyrrole-1-carbonyl]-3-methyl-butyl}-4-dimethylamino-benzamide], the Ki in test [1], in test [2] and in test [3] was less than 5 µM throughout.
`CC(C)C[C@H](NC(=O)c1cccc(CN)c1)C(=O)N1CC[C@@H]2[C@H]1C(=O)CN2C(=O)[C@@H](N)c1ccccc1` [Example 182, (3aR,6aS)-3-Aminomethyl-N-{(1S)-1-[4-((2S)-2-amino-2-phenyl-acetyl)-6-oxo-hexahydro-pyrrolo[3,2-b]pyrrole-1-carbonyl)-3-methyl-butyl}-benzamide]: the inhibition constant Ki in test [1] and in test [2] was less than 5 µM each time.
Take `CC(C)C[C@H](NC(=O)c1cccc(CN)c1)C(=O)N1CC[C@@H]2[C@H]1C(=O)CN2C(=O)Cc1cccc(F)c1` [Example 179, (3aR,6aS)-3-Aminomethyl-N-((1S)-1-{4-[2-(3-fluoro-phenyl)-acetyl]-6-oxo-hexahydro-pyrrolo[3,2-b]pyrrole-1-carbonyl}-3-methyl-butyl)-benzamide]: the Ki in test [1] and in test [2] was less than 5 µM each time.
For `O=C(N[C@@H](CC1CCCCC1)C(=O)N1CC[C@@H]2[C@H]1C(=O)CN2C(=O)c1ccc2ccccc2c1)c1ccsc1` [Example 256, (3aR,6aS)-Thiophene-3-carboxylic acid {(1S)-1-cyclohexylmethyl-2-[4-(naphthalene-2-carbonyl)-6-oxo-hexahydro-pyrrolo[3,2-b]pyrrol-1-yl]-2-oxo-ethyl}-amide], the Ki in test [1] and in test [3] was less than 5 µM each time.
